ChEMBL document CHEMBL5346980 (J Med Chem, 2023)

Experiments:
Carbonic anhydrase 1 = Carbonic anhydrase 1 (Homo sapiens, UniProt P00915); experiment: Inhibition of recombinant human carbonic anhydrase 1 incubated for 15 mins prior to testing by phenol red based stopped-flow CO2 hydration assay
Carbonic anhydrase 2 = Carbonic anhydrase 2 (Homo sapiens, UniProt P00918); experiment: Inhibition of recombinant human carbonic anhydrase 2 incubated for 15 mins prior to testing by phenol red based stopped-flow CO2 hydration assay
[1] = molecular target: T1, Vascular endothelial growth factor receptor 2 (Homo sapiens, UniProt P35968)
T1 sequence (P35968 whole entry): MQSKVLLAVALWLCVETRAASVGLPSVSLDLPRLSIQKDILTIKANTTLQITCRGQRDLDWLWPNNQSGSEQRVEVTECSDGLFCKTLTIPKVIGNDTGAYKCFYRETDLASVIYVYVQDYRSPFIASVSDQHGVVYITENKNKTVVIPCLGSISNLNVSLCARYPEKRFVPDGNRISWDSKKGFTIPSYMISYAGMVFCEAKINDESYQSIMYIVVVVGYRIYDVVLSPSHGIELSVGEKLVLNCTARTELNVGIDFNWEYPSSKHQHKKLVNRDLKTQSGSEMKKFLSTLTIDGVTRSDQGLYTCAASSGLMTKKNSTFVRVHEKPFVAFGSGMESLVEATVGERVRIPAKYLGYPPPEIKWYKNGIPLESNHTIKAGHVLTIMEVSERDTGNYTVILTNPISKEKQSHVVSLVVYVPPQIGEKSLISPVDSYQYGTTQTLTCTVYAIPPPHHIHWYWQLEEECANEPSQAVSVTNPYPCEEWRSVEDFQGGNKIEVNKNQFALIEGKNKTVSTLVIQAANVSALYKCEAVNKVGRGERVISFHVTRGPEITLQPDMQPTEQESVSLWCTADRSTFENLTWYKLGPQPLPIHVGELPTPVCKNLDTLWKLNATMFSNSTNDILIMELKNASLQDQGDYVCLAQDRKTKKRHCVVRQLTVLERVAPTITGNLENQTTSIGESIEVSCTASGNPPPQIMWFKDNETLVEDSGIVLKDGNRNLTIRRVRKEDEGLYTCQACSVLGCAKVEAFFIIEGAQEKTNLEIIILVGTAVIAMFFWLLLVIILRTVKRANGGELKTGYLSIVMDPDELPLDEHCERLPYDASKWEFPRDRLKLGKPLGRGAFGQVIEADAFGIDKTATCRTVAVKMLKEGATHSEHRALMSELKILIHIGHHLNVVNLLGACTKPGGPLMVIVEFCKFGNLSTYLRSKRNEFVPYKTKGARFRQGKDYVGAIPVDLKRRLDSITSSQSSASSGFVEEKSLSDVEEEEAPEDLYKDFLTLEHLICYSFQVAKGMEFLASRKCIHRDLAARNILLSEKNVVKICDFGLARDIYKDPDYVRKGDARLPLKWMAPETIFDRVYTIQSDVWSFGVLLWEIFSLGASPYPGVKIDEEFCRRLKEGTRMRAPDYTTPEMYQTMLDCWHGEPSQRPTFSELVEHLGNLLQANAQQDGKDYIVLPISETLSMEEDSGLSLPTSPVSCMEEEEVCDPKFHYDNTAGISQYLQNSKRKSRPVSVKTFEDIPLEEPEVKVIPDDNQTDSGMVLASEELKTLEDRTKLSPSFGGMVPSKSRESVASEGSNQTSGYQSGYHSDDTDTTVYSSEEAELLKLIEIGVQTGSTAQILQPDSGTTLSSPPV

[2] = molecular target: T1, Vascular endothelial growth factor receptor 2; remark: listed apart in the source
Description: Inhibition of human VEGFR-2 by ELISA

HepG2 = experiment: cells; conditions: Homo sapiens
Description: Cytotoxicity against human HepG2 cells by MTT assay

Carbonic anhydrase 1, sequence (P00915 whole entry): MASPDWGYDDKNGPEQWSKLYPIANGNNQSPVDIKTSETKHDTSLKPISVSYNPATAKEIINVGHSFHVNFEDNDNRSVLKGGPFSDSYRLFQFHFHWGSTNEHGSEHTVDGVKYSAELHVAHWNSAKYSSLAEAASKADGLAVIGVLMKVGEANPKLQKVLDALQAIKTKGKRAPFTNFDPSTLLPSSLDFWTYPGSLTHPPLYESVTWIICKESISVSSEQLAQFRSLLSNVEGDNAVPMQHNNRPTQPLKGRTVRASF

Row | Ki (Carbonic anhydrase 1) [µM] | Ki (Carbonic anhydrase 2) [nM] | IC50 [1] [nM] | IC50 [2] [nM] | IC50 (HepG2) [nM] | Structure (SMILES)
1 | > 10 | 285 | – | – | – | COc1ccc(-n2nc(NC(=O)Nc3cccc(S(N)(=O)=O)c3)nc2-c2ccccc2)cc1OC
2 | – | 72.4 | 717 | – | – | COc1ccc(-n2nc(NC(=O)Nc3ccc(C)c(S(N)(=O)=O)c3)nc2-c2ccccc2)cc1
3 | – | 547 | – | – | – | COc1ccc(-n2nc(NC(=O)Nc3ccc(C)c(S(N)(=O)=O)c3)nc2-c2ccccc2)cc1OC
4 | > 10 | 158 | – | – | – | COc1cccc(-n2nc(NC(=O)Nc3ccccc3S(N)(=O)=O)nc2-c2ccccc2)c1
5 | > 10 | – | – | – | – | NS(=O)(=O)c1ccccc1NC(=O)Nc1nc(-c2ccccc2)n(-c2cccc(Cl)c2)n1
6 | > 10 | 384 | – | – | – | NS(=O)(=O)c1ccccc1NC(=O)Nc1nc(-c2ccccc2)n(-c2ccc(F)cc2)n1
7 | 0.0618 | 20.1 | – | – | – | NS(=O)(=O)c1ccc(CCNC(=O)Nc2nc(-c3ccccc3)n(-c3cccc(Cl)c3)n2)cc1
8 | 9.43 | 91.5 | – | – | – | COc1cccc(-n2nc(NC(=O)Nc3cccc(S(N)(=O)=O)c3)nc2-c2ccccc2)c1
9 | 0.104 | 35.8 | – | – | – | COc1cccc(-n2nc(NC(=O)NCCc3ccc(S(N)(=O)=O)cc3)nc2-c2ccccc2)c1
10 | > 10 | 112 | – | – | – | COc1ccc(-n2nc(NC(=O)Nc3ccccc3S(N)(=O)=O)nc2-c2ccccc2)cc1OC
11 | > 10 | 241 | 271 | – | – | NS(=O)(=O)c1ccccc1NC(=O)Nc1nc(-c2ccccc2)n(-c2ccc(Cl)cc2)n1
12 | – | 41.7 | – | – | – | NS(=O)(=O)c1ccc(CCNC(=O)Nc2nc(-c3ccccc3)n(-c3ccc(Cl)cc3)n2)cc1
13 | 0.153 | 16.4 | – | – | – | COc1ccc(-n2nc(NC(=O)NCCc3ccc(S(N)(=O)=O)cc3)nc2-c2ccccc2)cc1OC
14 | 2.69 | – | > 1000 | – | – | NS(=O)(=O)c1ccc(NC(=O)Nc2nc(-c3ccccc3)n(-c3cccc(Cl)c3)n2)cc1
15 | 2.25 | 25.2 | – | – | – | NS(=O)(=O)c1ccc(NC(=O)Nc2nc(-c3ccccc3)n(-c3ccc(F)cc3)n2)cc1
16 | 8.26 | – | – | – | – | NS(=O)(=O)c1cccc(NC(=O)Nc2nc(-c3ccccc3)n(-c3ccc(Cl)cc3)n2)c1

Row | Ki (Carbonic anhydrase 1) [µM] | Ki (Carbonic anhydrase 2) [nM] | IC50 [1] [nM] | IC50 [2] [nM] | IC50 (HepG2) [nM] | Structure (SMILES)
17 | > 10 | 230 | – | – | – | COc1cccc(-n2nc(NC(=O)Nc3ccc(C)c(S(N)(=O)=O)c3)nc2-c2ccccc2)c1
18 | 0.0398 | 3.4 | – | – | – | NS(=O)(=O)c1ccc(CCNC(=O)Nc2nc(-c3ccccc3)n(-c3ccc(F)cc3)n2)cc1
19 | 0.0827 | – | – | – | – | COc1ccc(-n2nc(NC(=O)NCCc3ccc(S(N)(=O)=O)cc3)nc2-c2ccccc2)cc1
20 | 5.82 | 101 | – | – | – | NS(=O)(=O)c1cccc(NC(=O)Nc2nc(-c3ccccc3)n(-c3cccc(Cl)c3)n2)c1
21 | – | 13.6 | – | – | – | COc1cccc(-n2nc(NC(=O)Nc3ccc(S(N)(=O)=O)cc3)nc2-c2ccccc2)c1
22 | > 10 | 91.4 | 96.2 | – | – | Cc1ccc(NC(=O)Nc2nc(-c3ccccc3)n(-c3cccc(Cl)c3)n2)cc1S(N)(=O)=O
23 | > 10 | 127 | 541 | – | – | Cc1ccc(NC(=O)Nc2nc(-c3ccccc3)n(-c3ccc(Cl)cc3)n2)cc1S(N)(=O)=O
24 | – | 84.6 | 318 | – | – | NS(=O)(=O)c1ccc(NC(=O)Nc2nc(-c3ccccc3)n(-c3ccc(Cl)cc3)n2)cc1
25 | > 10 | 158 | – | – | – | COc1ccc(-n2nc(NC(=O)Nc3ccccc3S(N)(=O)=O)nc2-c2ccccc2)cc1
26 | > 10 | 170 | – | – | – | Cc1ccc(NC(=O)Nc2nc(-c3ccccc3)n(-c3ccc(F)cc3)n2)cc1S(N)(=O)=O
27 | 4.9 | 99 | – | – | – | NS(=O)(=O)c1cccc(NC(=O)Nc2nc(-c3ccccc3)n(-c3ccc(F)cc3)n2)c1
28 | – | – | – | 19.8 | 240 | COc1cc(-c2nc(C(=O)Nc3ccccc3)nn2-c2ccc(F)c(Cl)c2)cc(OC)c1OC
29 | 3.87 | 29.4 | – | – | – | COc1ccc(-n2nc(NC(=O)Nc3ccc(S(N)(=O)=O)cc3)nc2-c2ccccc2)cc1
30 | 4.19 | 56 | 183 | – | – | COc1ccc(-n2nc(NC(=O)Nc3cccc(S(N)(=O)=O)c3)nc2-c2ccccc2)cc1
31 | – | 16.9 | – | – | – | COc1ccc(-n2nc(NC(=O)Nc3ccc(S(N)(=O)=O)cc3)nc2-c2ccccc2)cc1OC
